Results reported in US20240409607A1, “STABILIZED MHC MOLECULES” (Immatics Biotechnologies GmbH, priority 2021, published 2024).

Tests used:
[1] = tested on: HLA-A*02:01_ds 22-71; assay: TSA with fatty acids in 20 mM HEPES pH 7.0; type: binding, human; conditions: 50 mM fatty acid, 20 mM HEPES pH 7.0, protein 0.1 mg/ml
Description: (§1) After refolding the protein was concentrated by ultrafiltration and purified by size exclusion chromatography. Fatty acids were dissolved in or diluted with water and neutralized with NaOH to give stock solution of 0.5 M pH 7.
In order to find optimal storage and handling conditions for peptide free recombinant HLA-A*02:01 preparations, different compounds were screened in a thermal shift assay (TSA). […] The additives indicated in table 3 were added or alternatively water was added as a control. The raw data was exported and the analysis of the melting temperature was performed in Microsoft Excel. Protein stability was monitored over a temperature range from 30° C. to 70° C. […] The temperature at which the maximal increase of fluorescence compared to the previous measurement was observed, is defined as melting point in the respective composition.

[2] = tested on: HLA-A*02:01_ds 22-71; conditions: 0.1 mg/ml protein, 20 mM Tris pH 8.0, 150 mM NaCl; for protein stability (melting point) in thermal shift assay: sodium butyrate 50 mM, GM dipeptide 10 mM, water as control
Description: as §1
(§2) In order to find optimal storage and handling conditions for peptide free recombinant HLA-A*02:01 preparations, different compounds were screened in a thermal shift assay (TSA). Measurements were performed in the Applied Biosystems 7500 real time PCR instrument at a protein concentration of 0.1 mg/ml in a buffer of 20 mM Tris pH 8.0, 150 mM NaCl. The additives indicated in table 3 were added or alternatively water was added as a control. The raw data was exported and the analysis of the melting temperature was performed in Microsoft Excel. Protein stability was monitored over a temperature range from 30° C. to 70° C. […] The temperature at which the maximal increase of fluorescence compared to the previous measurement was observed, is defined as melting point in the respective composition.

[3] = tested on: HLA-A*02:01 ds_84-139; assay: TSA with fatty acid and/or GM loading dipeptide; type: binding, human; conditions: fatty acid 50 mM final or GM 10 mM final
Description: as §2
(§3) Reference is made to FIGS. 5 to 7.

[4] = tested on: HLA-A*02:01_ds_22-71; assay: TSA with fatty acid and/or GM loading dipeptide; type: binding, human; conditions: fatty acid 50 mM final or GM 10 mM final
Description: as §2, §3

[5] = tested on: HLA-A*0201 ds 22-71; assay: TSA-screen with 40 different buffer conditions (different pH); type: binding, human; conditions: valeric acid 50 mM
Description: In a parallel TSA-screen with 40 different buffer conditions (MES pH between 5.8 to 7.2; BisTris pH between 5.8 to 7.2; MOPS pH between 6.5 to 7.9; HEPES pH 6.8 to 8.2; and Tris pH between 7.6 to 9.0), a clear link between pH conditions and stability of recombinant HLA was detected. In this experiment, a solution of 0.1 mg/ml HLA-A*0201 ds 22-71 in 20 mM HEPES pH 7.0 was supplemented with 0.1 volume of 1 M stock solution of the respective buffer. […] This pH range was also found to be optimal for peptide loaded HLA molecules. In order to test whether HLA is stabilized in different pH conditions by the fatty acids, a TSA-screen with the same 40 different buffer conditions was performed as described above. […] Accordingly, the stabilizing effect of the fatty acid on the HLA molecule was observed under different pH conditions.

Compound	stabilizing effect on the HLA molecule (melting point), branched or unsaturated versus linear saturated fatty acids [1]	protein stability (melting point) in thermal shift assay [2]	stabilization of the HLA protein, single additive [3]	stabilization of the HLA protein, single additive [4]	stabilizing effect compared to the dipeptide glycine-methionine ([2]; sodium butyrate 50 mM vs GM 10 mM)	stabilizing effect compared to tests without the fatty acid ([5]; 40 buffer conditions, MES, BisTris, MOPS, HEPES, Tris, pH 5.8 to 9.0, 100 mM buffer)	stabilizing effect in the pH range of 6 to 7.2 ([5]; pH 6 to 7.2)
CC(C)CCC(=O)O [4-methyl-valeric acid, 4-methyl-pentanoic acid]	showed a stabilizing effect on the HLA molecule	–	–	–	–	–	–
CSCC[C@H](N)C(=O)O.NCC(=O)O [glycine-methionine, reference compound]	–	marked increase in protein stability	Stabilization of the HLA proteins was observed	Stabilization of the HLA proteins was observed	–	–	–
CCCCCC(=O)O [hexanoic acid]	–	–	Stabilization of the HLA proteins was observed	Stabilization of the HLA proteins was observed	–	–	–
CCCC(=O)[O-].[Na+] [sodium butyrate, Sodium butyrate]	–	marked increase in protein stability	Stabilization of the HLA proteins was observed	Stabilization of the HLA proteins was observed	increased stabilizing effect	–	–
CCCCC(=O)O [valeric acid, Pentanoic acid]	–	–	Stabilization of the HLA proteins was observed	Stabilization of the HLA proteins was observed	–	increased in all pH conditions tested	particularly increased
